From ChEMBL document CHEMBL1154437, “Pyrimido[1,2-a]quinoxaline 6-oxide and phenazine 5,10-dioxide derivatives and related compounds as growth inhibitors of Trypanosoma cruzi” (Eur J Med Chem, 2008)

These molecules were tested on Trypanosoma cruzi (assay: Antitrypanosomal activity against Trypanosoma cruzi Y epimastigotes at 25 uM). Conditions: read-out: GI.
Format: functional

Row | SMILES | inhibition of growth at 25 µM [%]
1 | [O-][n+]1c2ccccc2[n+]([O-])c2cc(O)ccc21 | 0

The molecules below were run on Trypanosoma cruzi (assay: Antitrypanosomal activity against Trypanosoma cruzi CL Brener epimastigotes at 25 uM). Conditions: read-out: GI.
Format: functional

Row | SMILES | inhibition of growth at 25 µM [%]
2 | [O-][n+]1c2ccccc2[n+]([O-])c2cc(O)ccc21 | 14

Each molecule was assayed on Trypanosoma cruzi (assay: Antitrypanosomal activity against Trypanosoma cruzi Tulahuen 2 epimastigotes at 25 uM). Conditions: read-out: GI.
Format: functional

Row | SMILES | inhibition of growth at 25 µM [%]
3 | C[N+]1=C2C(c3ccc([N+](=O)[O-])cc3)=[N+]([O-])c3ccccc3N2CCC1 | 20
4 | COc1ccc(C2=[N+]([O-])c3ccccc3N3CCCN=C23)cc1 | 36
5 | CC1=[N+]([O-])c2ccccc2N2CCCN=C12 | 22
6 | O=[N+]([O-])c1ccccc1C1=[N+]([O-])c2ccccc2N2CCCN=C12 | 12
7 | COc1ccc(C2=[N+]([O-])c3ccccc3N3CCC[N+](C)=C23)cc1 | 9
8 | COc1ccc(C2=[N+]([O-])c3ccccc3N3CC(C)(C)CN=C23)cc1 | 13
9 | O=[N+]([O-])c1ccc(C2=[N+]([O-])c3ccccc3N3CCCN=C23)cc1 | 9
10 | c1ccc(C2=Nc3ccccc3N3CCCN=C23)cc1 | 29
11 | [O-][N+]1=C(c2ccccc2Cl)C2=NCCCN2c2ccccc21 | 14
12 | [O-][N+]1=C(c2ccc(Cl)cc2)C2=NCCCN2c2ccccc21 | 14
13 | C[N+]1=C2C(c3ccccc3)=[N+]([O-])c3ccccc3N2CCC1 | 20
14 | [O-][n+]1c2ccccc2[n+]([O-])c2cc(O)ccc21 | 0
15 | [O-][N+]1=C(c2ccccc2)C2=NCCCN2c2ccccc21 | 36
16 | [O-][N+]1=C(Cc2ccccc2)C2=NCCCN2c2ccccc21 | 13
